The record followed here is publication PMC6827283, “A Na^+ leak channel cloned from Trichoplax adhaerens extends extracellular pH and Ca^2+ sensing for the DEG/ENaC family close to the base of Metazoa” (The Journal of Biological Chemistry, 2019).

Experiment [1] concerns the target T1, TadNaC6 (Trichoplax adhaerens, UniProt A0A5J6BVG3).
T1 construct: gene ASIC6; full-length untagged channel from pTadNaC6-IR-EGFP (pIRES2-EGFP, EGFP expressed separately) in CHO-K1 cells; functional homomer, trimer by homology; cloning primers encode N-terminus MMAKGKIDH and C-terminus ADATNPDM-stop
T1 sequence (A0A5J6BVG3 1-492): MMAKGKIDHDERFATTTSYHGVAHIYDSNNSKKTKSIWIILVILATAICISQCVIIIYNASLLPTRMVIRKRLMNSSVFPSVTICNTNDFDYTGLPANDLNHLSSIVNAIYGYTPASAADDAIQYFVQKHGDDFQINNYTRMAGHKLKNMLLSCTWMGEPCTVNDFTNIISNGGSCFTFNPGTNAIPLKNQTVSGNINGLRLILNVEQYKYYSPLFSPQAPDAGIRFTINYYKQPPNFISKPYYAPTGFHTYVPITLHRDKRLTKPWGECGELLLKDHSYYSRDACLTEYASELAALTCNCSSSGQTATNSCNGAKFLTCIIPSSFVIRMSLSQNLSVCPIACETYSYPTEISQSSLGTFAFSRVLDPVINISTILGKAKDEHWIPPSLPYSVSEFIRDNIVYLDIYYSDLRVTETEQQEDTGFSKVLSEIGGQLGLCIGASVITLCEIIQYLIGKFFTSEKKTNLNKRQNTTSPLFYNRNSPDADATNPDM
Kind of experiment: whole-cell patch clamp, CHO-K1 cells. To be noted: agonist (activation); perfusion from pH 5 to pH 7.5 (figure legend pH 7.4); 10 μM to 3 mM tested; no EC50. It counts as cell-based. (In patch-clamp work, channel activity is measured electrically.)

Experiment [2] addresses T1, TadNaC6. Description: whole-cell patch clamp, CHO-K1 cells. It counts as cell-based.

For `N=C(N)NC(=O)c1nc(Cl)c(N)nc1N` [amiloride], the “fold current at 3 mM relative to pH 9 without amiloride” value on TadNaC6 [1] was ~ 12 fold. A word on the IC50: it is the concentration that gives 50% inhibition. A low value points to greater potency in that assay. On TadNaC6 [2], `N=C(N)c1ccc(/N=N/Nc2ccc(C(=N)N)cc2)cc1` [diminazene] returned an IC50 of 578 ± 69.4 µM.
